Data as given in patent US8088806B2 (Achillion Pharmaceuticals, Inc., priority 2005, dated 2012).

System: HCV replicon
Assay: Replicon based assay of HCV replication inhibition (NPT ELISA)
Assay type: cell-based, Hepatitis C virus
Conditions: Hepatitis C virus, replicon based assay of HCV replication inhibition; Table IV; read-out: Activity
Method in brief: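 Huh-7 cells carrying a bicistronic HCV replicon (neo, EMCV-IRES-driven NS3–NS5B) treated overnight after seeding with usually 6 concentrations, 10 to 0.03 micromolar, for three days at 37° C without G418. Replication read as NPT level by captured ELISA; matched-DMSO wells and interferon alpha as controls.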

| SMILES | EC50 [µM] |
| --- | --- |
| COc1ncc(-c2csc(Nc3ccc(OCC4CCCCC4)c(F)c3)n2)cn1 [compound 720, N-(4-(cyclohexylmethoxy)-3-fluorophenyl)-4-(2-methoxypyrimidin-5-yl)thiazol-2-amine] | < 1 |
| Fc1cc(Nc2nc(-c3cccc4nsnc34)cs2)ccc1OCC1CCCCC1 [compound 722, 4-(benzo[c][1,2,5]thiadiazol-4-yl)-N-(4-(cyclohexylmethoxy)-3-fluorophenyl)thiazol-2-amine] | 1 to 10 |
| O=c1[nH]c2ccc(-c3csc(Nc4ccc(OCC5CCCCC5)c(F)c4)n3)cc2c(=O)o1 [compound 723, 6-(2-(4-(cyclohexylmethoxy)-3-fluorophenylamino)thiazol-4-yl)-1H-benzo[d][1,3]oxazine-2,4-dione] | 1 to 10 |
| OCCc1ccc(-c2csc(Nc3ccc(OCC4CCCCC4)c(F)c3)n2)cc1 [compound 724, 2-(4-(2-(4-(cyclohexylmethoxy)-3-fluorophenylamino)thiazol-4-yl)phenyl)ethanol] | 1 to 10 |
| NC(=O)c1sccc1-c1csc(Nc2ccc(OCC3CCCCC3)c(F)c2)n1 [compound 725, 3-(2-(4-(cyclohexylmethoxy)-3-fluorophenylamino)thiazol-4-yl)thiophene-2-carboxamide] | < 1 |
| Fc1cc(Nc2nc(-c3ccc(-c4csnn4)cc3)cs2)ccc1OCC1CCCCC1 [compound 726, 4-(4-(1,2,3-thiadiazol-4-yl)phenyl)-N-(4-(cyclohexylmethoxy)-3-fluorophenyl)thiazol-2-amine] | 1 to 10 |
| O=C1CSc2cc(-c3csc(Nc4ccc(OCC5CCCCC5)c(F)c4)n3)ccc2N1 [compound 727, 7-(2-(4-(cyclohexylmethoxy)-3-fluorophenylamino)thiazol-4-yl)-2H-benzo[b][1,4]thiazin-3(4H)-one] | 1 to 10 |
| N#Cc1cncc(-c2csc(Nc3ccc(OCC4CCCCC4)c(F)c3)n2)c1 [compound 728, 5-(2-(4-(cyclohexylmethoxy)-3-fluorophenylamino)thiazol-4-yl)pyridine-3-carbonitrile] | < 1 |
| N#Cc1sccc1-c1csc(Nc2ccc(OCC3CCCCC3)c(F)c2)n1 [compound 729, 3-(2-(4-(cyclohexylmethoxy)-3-fluorophenylamino)thiazol-4-yl)thiophene-2-carbonitrile] | < 1 |
| CCCCCCCCOc1ccc(Nc2nc(-c3cccc(C(=O)OCC)n3)cs2)cc1C(F)(F)F [compound 730, ethyl 6-(2-(3-(trifluoromethyl)-4-(octyloxy)phenylamino)thiazol-4-yl)pyridine-2-carboxylate] | < 1 |
| CCCCCCCCOc1ccc(Nc2nc(-c3nc(C(=O)OCC)cs3)cs2)cc1C(F)(F)F [compound 731, ethyl 2-(2-(3-(trifluoromethyl)-4-(octyloxy)phenylamino)thiazol-4-yl)thiazole-4-carboxylate] | < 1 |
| CCCCCCCCOc1ccc(Nc2nc(-c3ncc(C(=O)OCC)s3)cs2)cc1C(F)(F)F [compound 732, ethyl 2-(2-(3-(trifluoromethyl)-4-(octyloxy)phenylamino)thiazol-4-yl)thiazole-5-carboxylate] | < 1 |
| CCCCCCCCOc1ccc(Nc2nc(-c3ccc(O)nc3)cs2)cc1C(F)(F)F [compound 733, 5-(2-(3-(trifluoromethyl)-4-(octyloxy)phenylamino)thiazol-4-yl)pyridin-2-ol] | < 1 |
| CCCCCCCCOc1ccc(Nc2nc(-c3ccc(OC)nc3)cs2)cc1C(F)(F)F [compound 734, N-(3-(trifluoromethyl)-4-(octyloxy)phenyl)-4-(6-methoxypyridin-3-yl)thiazol-2-amine] | < 1 |
| CN(C)c1ccc(-c2csc(Nc3ccc(OC4CCCC4)c(C(F)(F)F)c3)n2)cn1 [compound 735, 5-(2-(4-(cyclopentyloxy)-3-(trifluoromethyl)phenylamino)thiazol-4-yl)-N,N-dimethylpyridin-2-amine] | 1 to 10 |
| c1ccc(-c2nc3cc(Nc4nc(-c5cccnc5)cs4)ccc3o2)cc1 [compound 736, 2-phenyl-N-(4-(pyridin-3-yl)thiazol-2-yl)benzo[d]oxazol-5-amine] | < 1 |
| c1cncc(-c2csc(Nc3ccc4c(c3)OCCO4)n2)c1 [compound 737, N-(2,3-dihydrobenzo[b][1,4]dioxin-6-yl)-4-(pyridin-3-yl)thiazol-2-amine] | > 10 |
| Clc1ccc(-c2cc(Nc3nc(-c4cccnc4)cs3)[nH]n2)cc1 [compound 738, 3-(4-chlorophenyl)-N-(4-(pyridin-3-yl)thiazol-2-yl)-1H-pyrazol-5-amine] | > 10 |
| Brc1ccc(Nc2nc(-c3cccnc3)cs2)nc1 [compound 739, 5-bromo-N-(4-(pyridin-3-yl)thiazol-2-yl)pyridin-2-amine] | > 10 |
| c1cncc(-c2csc(Nc3ccc4c(c3)OCO4)n2)c1 [compound 740, N-(benzo[d][1,3]dioxol-6-yl)-4-(pyridin-3-yl)thiazol-2-amine] | > 10 |
| COc1ccc(Nc2nc(-c3cccnc3)cs2)cc1OC1CCCC1 [compound 741, N-(3-(cyclopentyloxy)-4-methoxyphenyl)-4-(pyridin-3-yl)thiazol-2-amine] | 1 to 10 |
| Clc1cc(Nc2nc(-c3cccnc3)cs2)ccc1N1CCOCC1 [compound 742, N-(3-chloro-4-morpholinophenyl)-4-(pyridin-3-yl)thiazol-2-amine] | 1 to 10 |

| SMILES | EC50 [µM] |
| --- | --- |
| CN1Cc2c(Nc3nc(-c4cccnc4)cs3)cccc2C(c2ccccc2)C1 (stereo not shown) [compound 743, 1,2,3,4-tetrahydro-2-methyl-4-phenyl-N-(4-(pyridin-3-yl)thiazol-2-yl)isoquinolin-8-amine] | > 10 |
| COC(=O)c1sc(-c2ccccc2)cc1Nc1nc(-c2cccnc2)cs1 [compound 744, methyl 3-(4-(pyridin-3-yl)thiazol-2-ylamino)-5-phenylthiophene-2-carboxylate] | > 10 |
| Cc1nc2cc(Nc3nc(-c4cccnc4)cs3)ccc2s1 [compound 745, 2-methy1-N-(4-(pyridin-3-yl)thiazol-2-yl)benzo[d]thiazol-5-amine] | > 10 |
| c1cncc(-c2csc(Nc3cc(-c4cccs4)n[nH]3)n2)c1 [compound 746, N-(4-(pyridin-3-yl)thiazol-2-yl)-3-(thiophen-2-yl)-1H-pyrazol-5-amine] | > 10 |
| Cc1cccc2sc(Nc3nc(-c4cccnc4)cs3)nc12 [compound 747, 4-methyl-N-(4-(pyridin-3-yl)thiazol-2-yI)benzo[d]thiazol-2-amine] | > 10 |
| Cn1nc(-c2ccccc2)cc1Nc1nc(-c2cccnc2)cs1 [compound 748, 1-methyl-3-phenyl-N-(4-(pyridin-3-yl)thiazol-2-yl)-1H-pyrazol-5-amine] | > 10 |
| c1cc(Nc2nc(-c3cccnc3)cs2)cc(-c2cocn2)c1 [compound 749, N-(3-(oxazol-4-yl)phenyl)-4-(pyridin-3-yl)thiazol-2-amine] | > 10 |
| CCn1c(C)nc2cc(Nc3nc(-c4cccnc4)cs3)ccc21 [compound 750, 1-ethyl-2-methyl-N-(4-(pyridin-3-yl)thiazol-2-yl)-1H-benzo[d]imidazol-5-amine] | > 10 |
| c1ccc(Oc2ccc(Nc3nc(-c4cccnc4)cs3)cn2)cc1 [compound 752, 6-phenoxy-N-(4-(pyridin-3-yl)thiazol-2-yl)pyridin-3-amine] | 1 to 10 |
| c1cncc(-c2csc(Nc3ccc4ncsc4c3)n2)c1 [compound 753, N-(4-(pyridin-3-yl)thiazol-2-yl)benzo[d]thiazol-6-amine] | > 10 |
| c1ccc(-c2cc(Nc3nc(-c4cccnc4)cs3)[nH]n2)cc1 [compound 754, 3-phenyl-N-(4-(pyridin-3-yl)thiazol-2-yl)-1H-pyrazol-5-amine] | > 10 |
| c1cncc(-c2csc(Nc3ccc4[nH]ncc4c3)n2)c1 [compound 755, N-(4-(pyridin-3-yl)thiazol-2-yl)-1H-indazol-5-amine] | > 10 |
| c1ccc(-c2ccc(Nc3nc(-c4cccnc4)cs3)cn2)cc1 [compound 756, 6-phenyl-N-(4-(pyridin-3-yl)thiazol-2-yl)pyridin-3-amine] | 1 to 10 |
| c1ccc(CCc2ccc(Nc3nc(-c4cccnc4)cs3)cc2)cc1 [compound 757, N-(4-phenethylphenyl)-4-(pyridin-3-yl)thiazol-2-amine] | < 1 |
| CCN(CC)CCOC(=O)c1ccc(Nc2nc(-c3cccnc3)cs2)cc1 [compound 758, 2-(diethylamino)ethyl 4-(4-(pyridin-3-yl)thiazol-2-ylamino)benzoate] | > 10 |
| CCN(CC)C(=O)c1cccc(Nc2nc(-c3cccnc3)cs2)c1 [compound 759, 3-(4-(pyridin-3-yl)thiazol-2-ylamino)-N,N-diethylbenzamide] | > 10 |
| O=C(c1ccccc1)c1cccc(Nc2nc(-c3cccnc3)cs2)c1 [compound 760, (3-(4-(pyridin-3-yl)thiazol-2-ylamino)phenyl)(phenyl) methanone] | > 10 |
| c1cncc(-c2csc(Nc3ccc4nccnc4c3)n2)c1 [compound 761, N-(4-(pyridin-3-yl)thiazol-2-yl)quinoxalin-6-amine] | > 10 |
| [2H]c1ccc2nc(-c3csc(Nc4ccc(OCC5CCCCC5)c(C(F)(F)F)c4)n3)ccc2n1 [compound 762, N-(4-(cyclohexylmethoxy)-3-(trifluoromethyl)phenyl)-4-(2-deuterated-1,5-naphthyridin-6-yl)thiazol-2-amine] | 1 to 10 |
| FC(F)(F)c1cc(Nc2nc(-c3cncnc3-c3ccccc3)cs2)ccc1OCC1CCCCC1 [compound 763, N-(4-(cyclohexylmethoxy)-3-(trifluoromethyl)phenyl)-4-(4-phenylpyrimidin-5-yl)thiazol-2-amine] | 1 to 10 |
| N#Cc1ccc(-c2csc(Nc3ccc(OCC4CCCCC4)c(C(F)(F)F)c3)n2)o1 [compound 764, 5-(2-(4-(cyclohexylmethoxy)-3-(trifluoromethyl)phenylamino)thiazol-4-yl)furan-2-carbonitrile] | < 1 |
